Measurements reported in the NIST ThermoML archive (doi:10.1021/acs.jced.6b00350).
“And” between values parts separate entries of the source, which are not always exact repeats. Equal values may be shown once. ± gives the expanded uncertainty stated by the source.

Conditions: Liquid, Hot wire method

FC(F)CC(F)(F)F [1,1,1,3,3-pentafluoropropane]
Conditions	thermal conductivity
203 K, 60661 kPa	0.1314 ± 0.0017 W/m/K
203 K, 60670 kPa	0.1314 ± 0.0017 W/m/K
203 K, 67499 kPa	0.1327 ± 0.0017 W/m/K
203 K, 67521 kPa	0.1326 ± 0.0017 W/m/K
203.01 K, 40146 kPa	0.1276 ± 0.0016 W/m/K
203.32 K, 4769 kPa	0.1202 ± 0.0015 W/m/K
203.32 K, 4775 kPa	0.1202 ± 0.0015 W/m/K
203.33 K, 10125 kPa	0.1214 ± 0.0015 W/m/K
203.33 K, 10131 kPa	0.1214 ± 0.0015 W/m/K
203.34 K, 15898 kPa	0.1226 ± 0.0016 W/m/K
203.35 K, 15840 kPa	0.1227 ± 0.0016 W/m/K
203.39 K, 27154 kPa	0.1246 ± 0.0016 W/m/K
203.39 K, 27157 kPa	0.1243 ± 0.0016 W/m/K
203.4 K, 21419 kPa	0.1235 ± 0.0016 W/m/K
203.4 K, 33699 kPa	0.1263 ± 0.0016 W/m/K
203.4 K, 67478 kPa	0.1323 ± 0.0017 W/m/K
203.41 K, 27689 kPa	0.1252 ± 0.0016 W/m/K
203.41 K, 33685 kPa	0.1264 ± 0.0016 W/m/K
203.41 K, 46771 kPa	0.1289 ± 0.0016 W/m/K
203.41 K, 46773 kPa	0.1287 ± 0.0016 W/m/K
203.41 K, 53771 kPa	0.1302 ± 0.0016 W/m/K
203.41 K, 53772 kPa	0.1301 ± 0.0016 W/m/K
203.41 K, 60658 kPa	0.1313 ± 0.0017 W/m/K
203.41 K, 60664 kPa	0.1315 ± 0.0017 W/m/K
203.41 K, 67491 kPa	0.1325 ± 0.0017 W/m/K
203.42 K, 40141 kPa	0.1277 ± 0.0016 W/m/K
203.42 K, 40147 kPa	0.1276 ± 0.0016 W/m/K
203.43 K, 372 kPa	0.119 ± 0.0015 W/m/K
203.43 K, 393 kPa	0.1193 ± 0.0015 W/m/K
203.83 K, 67450 kPa	0.1325 ± 0.0017 W/m/K
203.83 K, 67465 kPa	0.1324 ± 0.0017 W/m/K
203.84 K, 53769 kPa	0.13 ± 0.0016 W/m/K
203.84 K, 60649 kPa	0.1313 ± 0.0017 W/m/K and 0.1311 ± 0.0017 W/m/K
203.85 K, 27696 kPa	0.1251 ± 0.0016 W/m/K
203.85 K, 33690 kPa	0.1263 ± 0.0016 W/m/K
203.85 K, 33700 kPa	0.1263 ± 0.0016 W/m/K
203.85 K, 46765 kPa	0.1288 ± 0.0016 W/m/K
203.85 K, 46774 kPa	0.1288 ± 0.0016 W/m/K
203.85 K, 53757 kPa	0.13 ± 0.0016 W/m/K
203.86 K, 27682 kPa	0.125 ± 0.0016 W/m/K
203.86 K, 40135 kPa	0.1275 ± 0.0016 W/m/K
203.86 K, 40141 kPa	0.1276 ± 0.0016 W/m/K
221.72 K, 250 kPa	0.1129 ± 0.0014 W/m/K
221.72 K, 251 kPa	0.113 ± 0.0014 W/m/K
221.73 K, 4830 kPa	0.1143 ± 0.0014 W/m/K
221.73 K, 4854 kPa	0.1145 ± 0.0015 W/m/K
221.74 K, 10031 kPa	0.1155 ± 0.0015 W/m/K
221.75 K, 10011 kPa	0.1159 ± 0.0015 W/m/K
221.76 K, 15754 kPa	0.1169 ± 0.0015 W/m/K
221.76 K, 15760 kPa	0.1169 ± 0.0015 W/m/K
221.77 K, 21259 kPa	0.1183 ± 0.0015 W/m/K
221.77 K, 21264 kPa	0.1188 ± 0.0015 W/m/K
221.78 K, 27420 kPa	0.1202 ± 0.0015 W/m/K
221.78 K, 27443 kPa	0.1204 ± 0.0015 W/m/K
222 K, 39755 kPa	0.1236 ± 0.0016 W/m/K
222 K, 39756 kPa	0.1236 ± 0.0016 W/m/K
222 K, 47190 kPa	0.1252 ± 0.0016 W/m/K
222.01 K, 47202 kPa	0.1258 ± 0.0016 W/m/K
222.01 K, 54322 kPa	0.1269 ± 0.0016 W/m/K
222.01 K, 54323 kPa	0.1269 ± 0.0016 W/m/K
222.02 K, 61325 kPa	0.1285 ± 0.0016 W/m/K
222.02 K, 61363 kPa	0.1286 ± 0.0016 W/m/K
222.02 K, 67941 kPa	0.1302 ± 0.0016 W/m/K
222.02 K, 67960 kPa	0.13 ± 0.0016 W/m/K
222.09 K, 253 kPa	0.1125 ± 0.0014 W/m/K
222.09 K, 4859 kPa	0.1139 ± 0.0014 W/m/K
222.09 K, 4863 kPa	0.1139 ± 0.0014 W/m/K
222.1 K, 247 kPa	0.1124 ± 0.0014 W/m/K
222.11 K, 10038 kPa	0.1155 ± 0.0015 W/m/K
